The record followed here is ChEMBL document CHEMBL2074489, “Human organic anion transporter 3 (hOAT3) can operate as an exchanger and mediate secretory urate flux” (Cell Physiol Biochem, 2003).

The first data set concerns the target T1, Organic anion transporter 3 (Homo sapiens, UniProt Q8TCC7).
T1 sequence (Q8TCC7 whole entry): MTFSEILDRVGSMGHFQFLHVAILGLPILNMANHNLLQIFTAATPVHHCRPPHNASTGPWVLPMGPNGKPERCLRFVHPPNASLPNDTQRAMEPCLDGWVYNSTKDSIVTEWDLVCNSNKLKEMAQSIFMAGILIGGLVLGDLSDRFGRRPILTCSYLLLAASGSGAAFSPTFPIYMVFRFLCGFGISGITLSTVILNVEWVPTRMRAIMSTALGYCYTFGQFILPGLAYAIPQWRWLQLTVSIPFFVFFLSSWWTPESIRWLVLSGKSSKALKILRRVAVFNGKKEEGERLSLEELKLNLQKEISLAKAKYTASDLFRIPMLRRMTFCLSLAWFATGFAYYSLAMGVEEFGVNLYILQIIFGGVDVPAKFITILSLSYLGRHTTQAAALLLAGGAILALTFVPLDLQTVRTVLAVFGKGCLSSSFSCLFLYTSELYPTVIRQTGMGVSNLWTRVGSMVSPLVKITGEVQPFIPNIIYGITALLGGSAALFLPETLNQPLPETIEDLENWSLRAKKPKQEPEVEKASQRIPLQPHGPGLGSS
Kind of data set: TP_TRANSPORTER: trans-stimulation in Xenopus laevis oocytes. It is filed as functional, cell-based. Particulars: oocyte.
Consider `O=C(O)CCCC(=O)O` [GLUTARATE], for which the Activity result was “substrate []”.
Same read-out and setting: then `O=c1[nH]c(=O)c2[nH]c(=O)[nH]c2[nH]1` [URIC ACID], with “substrate []”; and `Nc1ccc(C(=O)NCC(=O)O)cc1` [AMINOHIPPURIC ACID], with “substrate []”; and `CN/C(=N/CCSCc1nc[nH]c1C)NC#N` [CIMETIDINE], with “substrate []”.
Regarding `O=C(O)CCC(=O)C(=O)O` [ALPHA-KETOGLUTARIC ACID], the Activity entry was “substrate []”.

For a further data set, the target named is T1, Organic anion transporter 3. Kind of data set: TP_TRANSPORTER: inhibition of Estrone sulfate in Xenopus laevis oocytes.
Conditions: not given
It is filed as functional, cell-based, Oocyte.
The compound `O=c1[nH]c(=O)c2[nH]c(=O)[nH]c2[nH]1` [URIC ACID] returned an inhibition constant (Ki) of 275 µM.

The Ki is the equilibrium dissociation constant of an inhibitor or competing ligand from its target.
